The values that follow come from publication PMC9295122, “Sialic Acid Derivatives Inhibit SiaT Transporters and Delay Bacterial Growth” (ACS Chemical Biology, 2022).

One data set concerns the target T1, SiaT from P. mirabilis (Proteus mirabilis, UniProt B4EZY7).
T1 construct: made in house
In words: biochemical. It counts as biochemical. The following applies: for type of inhibition: PmSiaT, Lineweaver–Burk plot; for Ki: proteoliposome assay, Lineweaver–Burk, read-out: PmSiaT Ki. The method, then:
To gain further insights into the molecular mechanisms, we investigated the direct effects of compounds 3e and 3f on the transport activity in proteoliposomes reconstituted with PmSiaT and SaSiaT. A kinetic analysis was performed by measuring the concentration-dependent uptake of [^3H]Neu5Ac in the presence of two different concentrations of the inhibitors 3f (Figure 5a,c) or 3e (Figure 5b,d).
Figure 5 Kinetic analysis of the inhibition of recombinant SiaT from P. mirabilis (A,B) and S. aureus (C,D) reconstituted in proteoliposomes and [^3H]Neu5Ac efflux in proteoliposomes (E,F). (a–d) Data were plotted according to Lineweaver–Burk as a reciprocal transport rate vs reciprocal Neu5Ac concentration. The transport rate was measured, in 5 min, by adding [^3H] Neu5Ac at the indicated concentrations to proteoliposomes containing 20 mM K^+-gluconate in the presence of valinomycin as described in the Supporting Information. [(A,B) P. mirabilis SiaT]; (A) compound 3f 0.25 μM (●) or 0.75 μM (□) was added in comparison to samples without inhibitor (○). (B) Compound 3e 12 μM (●) or 40 μM (□) was added in comparison to samples without an inhibitor (○). [(C,D) S. aureus SiaT]. (C) Compound 3f 80 μM (●) or 200 μM (□) was added in comparison to samples without an inhibitor (○). (D) Compound 3e 5 μM (●) or 12 μM (□) was added in comparison to samples without an inhibitor (○). Results are mean ± s.d. from four independent experiments (n = 4). […] Data are calculated as the percent of residual activity with respect to the control sample (efflux time zero). The results are the means ± s.d. of three independent experiments.
The purified SiaT from P. mirabilis and S. aureus was reconstituted by using the detergent removal procedure with the batchwise method previously pointed out.[16],[21] In brief, 2.5 μg or 5 μg of P. mirabilis and S. aureus SiaT, respectively, were mixed with 120 μL 10% C12E8, 100 μL of 10% egg yolk phospholipids (w/v, in the form of sonicated liposomes as previously described),[43] 20 mM of K^+-gluconate, and 20 mM Hepes Tris pH 7.0 in a final volume of 700 μL. The reconstitution mixture was incubated with 0.5 g Amberlite XAD-4 resin under rotatory stirring (1200 rpm) at 25 °C for 40 min.[44] The amount of reconstituted protein was estimated as previously described.[16]
For uptake experiments, 600 μL of proteoliposomes were loaded onto a Sephadex G-75 column (0.7 cm diameter × 15 cm height), pre-equilibrated with 20 mM Hepes Tris pH 7.0 with 40 mM sucrose to balance the internal osmolarity. Then, valinomycin (0.75 μg/mg phospholipid), prepared in ethanol, was added to the eluted proteoliposomes to generate a K^+ diffusion potential, as previously described. After 10 s of incubation with valinomycin, the transport was started by adding different concentrations of [^3H]-Neu5Ac (as indicated in the figures) to 100 μL proteoliposomes in the presence of 10 mM NaCl for P. mirabilis and 50 mM NaCl for S. aureus. For kinetic measurement, the initial transport rate was measured by stopping the reaction after 5 min, that is, within the initial linear range of [^3H]-Neu5Ac uptake into the proteoliposomes previously described. For efflux measurements, proteoliposomes were preloaded by incubation with [^3H]-Neu5Ac (as indicated in the figures) in the presence of 10 mM NaCl for P. mirabilis and 50 mM NaCl for S. aureus for 20 min. Efflux was started by adding 0.1 mM Neu5Ac or inhibitors to the preloaded proteoliposomes. In both uptake and efflux experiments, the transport assay was terminated by loading each proteoliposome sample (100 μL) on a Sephadex G-75 column (0.6 cm diameter × 8 cm height) to remove the external radioactivity. Proteoliposomes were eluted with 1 mL of 50 mM NaCl and collected in a 4 mL of scintillation mixture, vortexed and counted.

A short description of data set [1]: Metabolic stability in human liver microsomes. Type of data set: in vitro ADME. The following applies: for microsomal CLint at 1 µM: human liver microsomes, read-out: intrinsic clearance Clint; for Metabolic stability in human microsomes, Exp. 1 / Metabolic stability in human microsomes, Exp. 2: intrinsic clearance, 1 µM compound. On the procedure: The assay was run in a 96-deep well format and solutions were prepared containing microsomes in phosphate buffer. The microsomes employed were from humans, rats, and mice. The reaction was initiated by addition of NADPH after preincubation at 37 °C with test compounds. The reaction was stopped by the addition of acetonitrile (ACN) at six time points (0, 5, 10, 15, 25, and 45 min), the samples were centrifuged, and the supernatant was diluted to determine the loss of compound by LC–MS/MS. Two incubations per compound per species. For further details regarding working concentrations, volumes, and final concentrations at incubation, refer to the supplementary section (Table S6). […]
Metabolic Metabolic Metabolic stability in stability in stability in Plasma-protein human mouse rat In vitro plasma stability binding by RED
Assay/compo microsome microsome microsome (% compound remaining after (% unbound und s s s 23 h) compound, (µL/min/m (µL/min/m (µL/min/m average n=2) g protein) g protein) g protein)
Exp. Exp. Exp. Exp. Exp. Exp. Hum Mou Ra Do Mini Hum Mou Ra […]
Conc. of W orki ng Vol ume i n Fi nal conc. At sol uti on assay incubation
577 m g / m L520 µ L0. […]
(Microsomes from liver hold many membrane-bound enzymes, among them those of drug oxidation.)

Setting [2] is: Neu5Ac transport by PmSiaT in proteoliposomes.

Where only a bound is given, the exact number is not on record here.

T1 sequence (B4EZY7 whole entry): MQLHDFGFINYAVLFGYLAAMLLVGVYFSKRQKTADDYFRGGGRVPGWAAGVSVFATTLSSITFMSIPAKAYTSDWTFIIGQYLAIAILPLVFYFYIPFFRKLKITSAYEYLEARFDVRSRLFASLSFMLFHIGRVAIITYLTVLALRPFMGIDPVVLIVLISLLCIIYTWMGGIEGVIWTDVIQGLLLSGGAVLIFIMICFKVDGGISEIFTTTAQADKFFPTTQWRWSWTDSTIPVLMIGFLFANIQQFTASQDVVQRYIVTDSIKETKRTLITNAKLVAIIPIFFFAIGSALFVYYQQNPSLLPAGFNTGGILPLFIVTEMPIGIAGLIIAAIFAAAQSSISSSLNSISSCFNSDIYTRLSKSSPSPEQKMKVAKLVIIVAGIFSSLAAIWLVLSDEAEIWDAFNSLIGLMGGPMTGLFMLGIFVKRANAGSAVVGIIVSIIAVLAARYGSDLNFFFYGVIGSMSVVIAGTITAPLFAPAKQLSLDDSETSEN

With `CC(=O)N[C@H]1[C@H]([C@H](O)[C@H](O)CO)OC(O)(C(=O)O)C[C@@H]1O` (stereo partly drawn) [Neu5Ac, 5-N-acetyl neuraminic acid, reference compound], on SiaT from P. mirabilis (setting [2]), the Km (as a rule, the substrate concentration at which the rate is half of its maximum) worked out at 7.5 ± 1.6 µM and the Vmax is reported as 180 ± 56 nmol/mg protein/min.
As to `CC(=O)NC1C(OCc2cc(F)cc(F)c2)CC(O)(C(=O)O)OC1C(O)C(O)CO` (stereo not drawn) [Compound 3e], on SiaT from P. mirabilis, the type of inhibition entry is “competitive inhibitors” and the inhibition constant (Ki) (in general, a measure of affinity in units of concentration, obtained from inhibition or displacement) was determined as 9.9 ± 2.6 µM. Besides, in data set [1], the microsomal CLint at 1 µM is less than 10 µL/min/mg; the “Metabolic stability in human microsomes, Exp. 1” value (“Metabolic stability … Exp. 1” for short) is listed as less than 10 µL/min/mg protein; the “Metabolic stability in human microsomes, Exp. 2” value (shortened to “Metabolic stability … Exp. 2”) is less than 10 µL/min/mg protein.
For the compound `CC(=O)NC1C(OCc2cc(Br)cc(Br)c2)CC(O)(C(=O)O)OC1C(O)C(O)CO` (stereo not drawn) [Compound 3f], at SiaT from P. mirabilis, the type of inhibition entry is reported as “competitive inhibitors” and the Ki turned out to be 0.13 ± 0.04 µM. Moreover, in data set [1], the microsomal CLint at 1 µM is less than 10 µL/min/mg; the “Metabolic stability … Exp. 1” value is less than 10 µL/min/mg protein; the “Metabolic stability … Exp. 2” value is reported as less than 10 µL/min/mg protein.
In the case of `CC(=O)NC1C(OCc2ccccc2)CC(O)(C(=O)O)OC1C(O)C(O)CO` (stereo not drawn) [Compound 3a], in data set [1], the microsomal CLint at 1 µM was less than 10 µL/min/mg; the “Metabolic stability … Exp. 1” value was less than 10 µL/min/mg protein; the “Metabolic stability … Exp. 2” value was less than 10 µL/min/mg protein.
